Assay results as given in patent US20190060257A1, “ANALGESIC COMPOUNDS” (ZENO ROYALTIES & MILESTONES, LLC, priority 2016, published 2019).

system: male ICR mice; test: Formalin Paw Test; assay type: in vivo, mouse; details: 30 mg/kg, intraperitoneal administration, early/acute phase (0-10 minutes) after 2% formalin into hind paw
Experimental: One test compound or the vehicle was administered to each mouse in each test group (8 mice per group). Non-fasted male ICR mice weighing 23±3 g were used. Test compounds were administered at a concentration of 3 mg/kg, 10 mg/kg, 15 mg/kg, 30 mg/kg, 60 mg/kg, 100 mg/kg, 200 mg/kg or 300 mg/kg; morphine was administered at a concentration of 5 mg/kg; and acetaminophen was administered at a concentration of 200 mg/kg. The control group received the vehicle (5% DMSO/40% PEG400/20% HPbCD/Saline). After 30 or 60 minutes, a 2% formalin solution (0.02 mL) was injected into one hind paw (sub-plantar) of each mouse. Responses were measured every 5 minutes after the formalin injection for 35 minutes.
The results in Table A are for intraperitoneal administration. In Table A, ‘A’ designates <70 licks/sec, ‘B’ designates ≥70 licks/sec and <165 licks/sec, and ‘C’ designates ≥165 licks/sec.

Row | SMILES | Early Phase
1 | NC1CC2(C1)CC(O)C2 (centres unmarked) [Compound 14] | B (‘B’ designates ≥70 licks/sec and <165 licks/sec)
2 | NC1CCC(F)(F)CC1 [Compound 9] | A (‘A’ designates <70 licks/sec)
3 | NC12CC3CC(C1)CC(C(F)(F)F)(C3)C2 [Compound 20] | A (‘A’ designates <70 licks/sec)
4 | NC12CCC(C(F)(F)F)(CC1)CC2 [Compound 18] | B (‘B’ designates ≥70 licks/sec and <165 licks/sec)
5 | NC1CC2(C1)CC(N)C2 (centres unmarked) [Compound 13] | B (‘B’ designates ≥70 licks/sec and <165 licks/sec)
6 | NCC1CC(F)(F)C1 [Compound 6] | B (‘B’ designates ≥70 licks/sec and <165 licks/sec)
7 | NC1CCCCCC1 [Compound 11] | A (‘A’ designates <70 licks/sec)
8 | NC1CCCC(C(F)(F)F)C1 (centres unmarked) [Compound 10] | A (‘A’ designates <70 licks/sec)
9 | NC1CC(F)(F)C1 [Compound 2] | B (‘B’ designates ≥70 licks/sec and <165 licks/sec)
10 | CC12CC3CC(C)(C1)CC(N)(C3)C2 [Compound 19] | A (‘A’ designates <70 licks/sec)
11 | N[C@H]1C[C@H](O)C1 [trans-1] | B (‘B’ designates ≥70 licks/sec and <165 licks/sec)
12 | N[C@H]1C[C@@H](O)C1 [cis-1] | B (‘B’ designates ≥70 licks/sec and <165 licks/sec)
13 | NC1CCC(F)(F)C1 (centres unmarked) [Compound 8] | B (‘B’ designates ≥70 licks/sec and <165 licks/sec)

same assay, conditions: 30 mg/kg, intraperitoneal administration, late/tonic phase (10-35 minutes) after 2% formalin into hind paw

Row | SMILES | Late Phase
14 | NC1CC2(C1)CC(O)C2 (centres unmarked) [Compound 14] | B (‘B’ designates ≥70 licks/sec and <165 licks/sec)
15 | NC1CCC(F)(F)CC1 [Compound 9] | A (‘A’ designates <70 licks/sec)
16 | NC12CC3CC(C1)CC(C(F)(F)F)(C3)C2 [Compound 20] | A (‘A’ designates <70 licks/sec)
17 | NC12CCC(C(F)(F)F)(CC1)CC2 [Compound 18] | B (‘B’ designates ≥70 licks/sec and <165 licks/sec)
18 | NC1CC2(C1)CC(N)C2 (centres unmarked) [Compound 13] | B (‘B’ designates ≥70 licks/sec and <165 licks/sec)
19 | NCC1CC(F)(F)C1 [Compound 6] | B (‘B’ designates ≥70 licks/sec and <165 licks/sec)
20 | NC1CCCCCC1 [Compound 11] | C (‘C’ designates ≥165 licks/sec)
21 | NC1CCCC(C(F)(F)F)C1 (centres unmarked) [Compound 10] | A (‘A’ designates <70 licks/sec)
22 | NC1CC(F)(F)C1 [Compound 2] | B (‘B’ designates ≥70 licks/sec and <165 licks/sec)
23 | CC12CC3CC(C)(C1)CC(N)(C3)C2 [Compound 19] | A (‘A’ designates <70 licks/sec)
24 | N[C@H]1C[C@H](O)C1 [trans-1] | C (‘C’ designates ≥165 licks/sec)
25 | N[C@H]1C[C@@H](O)C1 [cis-1] | C (‘C’ designates ≥165 licks/sec)
26 | NC1CCC(F)(F)C1 (centres unmarked) [Compound 8] | B (‘B’ designates ≥70 licks/sec and <165 licks/sec)
